Measured values as given in patent US20220143061A1, “3'3'-CYCLIC DINUCLEOTIDES AND PRODRUGS THEREOF” (INSTITUTE OF ORGANIC CHEMISTRY AND BIOCHEMISTRY ASCR, V.V.I., priority 2019, published 2022).
Read-outs that look alike come from different tables or passages of the source.

Experiments:
[1] = target: T1, human wild type STING (WT STING) (Homo sapiens, UniProt Q86WV6, H232R); experiment: 293T WT STING standard reporter assay; type: cell-based; details: no digitonin, 7 hours, ISRE firefly luciferase
T1 construct: host or cells: 293T cells (ATCC CRL-3216), stably double transfected with pUNO1-hSTING-WT and pGL64.27-4×ISRE
T1 sequence (Q86WV6 whole entry H232R): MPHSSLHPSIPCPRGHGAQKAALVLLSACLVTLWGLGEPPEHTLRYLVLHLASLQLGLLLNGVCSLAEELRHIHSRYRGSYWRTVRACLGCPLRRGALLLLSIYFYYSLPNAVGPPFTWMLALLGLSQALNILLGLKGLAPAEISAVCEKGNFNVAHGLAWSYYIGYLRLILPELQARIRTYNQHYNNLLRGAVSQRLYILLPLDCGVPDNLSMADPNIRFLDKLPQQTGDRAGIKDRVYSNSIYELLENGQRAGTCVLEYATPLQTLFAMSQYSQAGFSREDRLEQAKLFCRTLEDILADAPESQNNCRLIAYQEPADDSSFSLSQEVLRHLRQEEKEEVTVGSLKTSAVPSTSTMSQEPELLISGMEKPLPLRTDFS
Source text: Two complementary oligonucleotides of the sequence […] […] […] […] […] The oligonucleotides were mixed in equal molar amounts, hybridized, and cleaved by restriction endonucleases HindIII (cat. #. R0104S, NEB, Ipswich, USA) and BglII (cat. #R0144S, NEB, Ipswich, USA). Ultimately, they were ligated into plasmid pGL4.27 (cat. #E6651, Promega, Madison, USA) linearized with the same enzymes. As result the sequence with four ISRE sites was placed upstream of the minimum promoter of firefly luciferase reporter gene.
After 5 minutes incubation at room temperature (RT), 250 μL of the mixture was added dropwise to the cells in one well. Cells were incubated 36 hours at 37° C. with 5% CO2, and then detached with 0.05% Trypsin and 0.22 g/L EDTA (both cat. #L0941, Biowest, Riverside, USA).
Transfected cells were seeded onto poly-D-lysine coated six well plates at density 50,000 cells per 1 cm^2 in DMEM medium with high glucose containing 10% heat inactivated FBS, 30 μg/mL blasticidin (cat. #ant-b1-05, InvivoGen, San Diego, USA), 0.06 mg/ml Penicillin G and 0.1 mg/ml Streptomycin Sulfate (both cat. #. L0018, Biowest, Riverside, USA). The medium was replenished every 3-4 days until visible colonies of cells resistant to blasticidin were formed.
Blasticidin resistant cells stably expressing WT STING were further transfected with pGL64.27-4×ISRE plasmid following the same procedure as described above. […] Homogeneous culture of stably double transfected cells was prepared by limiting dilution of cells in 96 well plates and wells with cells were selected that originated from a single cell.
The medium was removed the next day and three-fold serial dilutions of compounds in 100 μl medium were added to the cells. The plates were incubated for 7 hours at 37° C. with 5% CO2. Next 50 μl of the medium was removed from wells, and 30 μl of ONE-Glo™ Luciferase Assay System reagent (cat. #E6120, Promega, Madison, USA) was added to each well. Luminescence was read on Synergy H1 (Biotek, Winooski, USA).

[2] = system: peripheral blood mononuclear cell (PBMC); experiment: Peripheral blood mononuclear cell assay (cytokine levels); type: cell-based; details: 1 h with compound, wash, 15 hour incubation, average of one to four donors
Description: Selected compounds were tested in an in vitro peripheral blood mononuclear cell (PBMC) assay. […] Serially diluted tested compounds were added to wells in 50 μl of cultivation medium and cell were incubated with compounds for 1 h at 37° C. with 5% CO2. Plates with cells were then spun 500 g for 5 minutes and medium was removed. Cells were washed twice with the cell culture medium by the use of centrifugation and gently resuspended in 100 μl medium without compounds. After 15 hour incubation at 37° C. with 5% CO2, the cell culture medium was collected and the levels of interferon-alpha (INF-α), interferon-gamma (INF-γ) and tumor necrosis factor-alpha (TNF-α) were determined with ProcartaPlex Assays (ThermoFisher, Waltham, USA) and MAGPIX System (Merck KGaA, Darmstadt, Germany). […] Values reported are an average of runs from one to four donors.

[3] = 293T wtSTING-FL cells, read-out: 293T WT STING EC50
[4] = 293T WT STING EC50, 293T wtSTING-FL cells

| Structure (SMILES) | EC50 [1, 3] | EC50 ([2]; read-out: PBMC EC50 IFN-α) | EC50 ([2]; read-out: PBMC EC50 IFN-γ) | EC50 ([2]; read-out: PBMC EC50 TNF-α) | EC50 [1, 4] |
| --- | --- | --- | --- | --- | --- |
| CC(C)(C)C(=O)OCOP1(=O)CO[C@H]2[C@@H](F)[C@H](n3cnc4c(N)ncnc43)O[C@@H]2COP(=O)(OCOC(=O)C(C)(C)C)O[C@H]2[C@@H](F)[C@H](n3cnc4c(N)ncnc43)O[C@@H]2CO1 (mixture of isomers) [Compound 41b, {[(1R,6R,8R,9R,10R,16R,18R,19R)-8,18-bis(6-amino-9H-purin-9-yl)-13-{[(2,2-dimethylpropanoyl)oxy]methoxy}-9,19-difluoro-3,13-dioxo-2,4,7,11,14,17-hexaoxa-3λ^5,13λ^5-diphosphatricyclo[14.3.0.0^6,^10]nonadecan-3-yl]oxy}methyl 2,2-dimethylpropanoate] | 30 nM | 250 nM | 100 nM | 40 nM |  |
| CC(C)OC(=O)OCOP1(=O)CO[C@H]2[C@@H](F)[C@H](n3cnc4c(N)ncnc43)O[C@@H]2COP(=O)(OCOC(=O)OC(C)C)O[C@H]2[C@@H](F)[C@H](n3cnc4c(N)ncnc43)O[C@@H]2CO1 (mixture of isomers) [Compound 42b, {[(1R,6R,8R,9R,10R,16R,18R,19R)-8,18-bis(6-amino-9H-purin-9-yl)-9,19-difluoro-3,13-dioxo-13-({[(propan-2-yloxy)carbonyl]oxy}methoxy)-2,4,7,11,14,17-hexaoxa-3λ^5,13λ^5-diphosphatricyclo[14.3.0.0^6,^10]nonadecan-3-yl]oxy}methyl propan-2-yl carbonate] | 250 nM | 2300 nM | 1300 nM | 1100 nM |  |
| CCC(C)(C)C(=O)OCOP1(=O)CO[C@H]2[C@@H](F)[C@H](n3cnc4c(N)ncnc43)O[C@@H]2COP(=O)(OCOC(=O)C(C)(C)CC)O[C@H]2[C@@H](F)[C@H](n3cnc4c(N)ncnc43)O[C@@H]2CO1 (mixture of isomers) [Compound 44b, {[(1R,6R,8R,9R,10R,16R,18R,19R)-8,18-bis(6-amino-9H-purin-9-yl)-13-{[(2,2-dimethylbutanoyl)oxy]methoxy}-9,19-difluoro-3,13-dioxo-2,4,7,11,14,17-hexaoxa-3λ^5,13λ^5-diphosphatricyclo[14.3.0.0^6,^10]nonadecan-3-yl]oxy}methyl 2,2-dimethylbutanoate] | 10 nM | 200 nM | 200 nM | 200 nM |  |
| CC1(C(=O)OCOP2(=O)CO[C@H]3[C@@H](F)[C@H](n4cnc5c(N)ncnc54)O[C@@H]3COP(=O)(OCOC(=O)C3(C)CCCCC3)O[C@H]3[C@@H](F)[C@H](n4cnc5c(N)ncnc54)O[C@@H]3CO2)CCCCC1 (mixture of isomers) [Compound 45b] | 30 nM | 70 nM | 20 nM | 20 nM |  |
| CCCCCCCC(=O)OCOP1(=O)CO[C@H]2[C@@H](F)[C@H](n3cnc4c(N)ncnc43)O[C@@H]2COP(=O)(OCOC(=O)CCCCCCC)O[C@H]2[C@@H](F)[C@H](n3cnc4c(N)ncnc43)O[C@@H]2CO1 (mixture of isomers) [Compound 46b, {[(1R,6R,8R,9R,10R,16R,18R,19R)-8,18-bis(6-amino-9H-purin-9-yl)-9,19-difluoro-13-[(octanoyloxy)methoxy]-3,13-dioxo-2,4,7,11,14,17-hexaoxa-3λ^5,13λ^5-diphosphatricyclo[14.3.0.0^6,^10]nonadecan-3-yl]oxy}methyl octanoate] | 2 nM | 4 nM |  | 1 nM |  |
| CCCCCCCCCCCC(=O)OCSP1(=O)OC[C@H]2O[C@@H](n3cnc4c(N)ncnc43)[C@H](F)[C@@H]2OCP(=O)(O)OC[C@H]2O[C@@H](n3cnc4c(N)ncnc43)[C@H](F)[C@@H]2O1 (single isomer, unassigned) [Compound 31b] |  | 800 nM | 300 nM | 500 nM |  |
| CCCCCCCCCC(=O)OCSP1(=O)OC[C@H]2O[C@@H](n3cnc4c(N)ncnc43)[C@H](F)[C@@H]2OCP(=O)(O)OC[C@H]2O[C@@H](n3cnc4c(N)ncnc43)[C@H](F)[C@@H]2O1 (single isomer, unassigned) [Compound 36a] |  | 2500 nM | 1600 nM | 1200 nM |  |
| CCCCCCCCCC(=O)OCSP1(=O)OC[C@H]2O[C@@H](n3cnc4c(N)ncnc43)[C@H](F)[C@@H]2OCP(=O)(O)OC[C@H]2O[C@@H](n3cnc4c(N)ncnc43)[C@H](F)[C@@H]2O1 (single isomer, unassigned) [Compound 36b] |  | 1000 nM | 500 nM | 800 nM |  |
| CC(C)(C)C(=O)OCSP1(=O)CO[C@H]2[C@@H](F)[C@H](n3cnc4c(N)ncnc43)O[C@@H]2COP(=O)(SCOC(=O)C(C)(C)C)O[C@H]2[C@@H](F)[C@H](n3cnc4c(N)ncnc43)O[C@@H]2CO1 (single isomer, unassigned) [Compound 39a] |  |  |  |  | 1100 nM |
| CC(C)(C)C(=O)OCSP1(=O)CO[C@H]2[C@@H](F)[C@H](n3cnc4c(N)ncnc43)O[C@@H]2COP(=O)(SCOC(=O)C(C)(C)C)O[C@H]2[C@@H](F)[C@H](n3cnc4c(N)ncnc43)O[C@@H]2CO1 (single isomer, unassigned) [Compound 39b] |  |  |  |  | 20 nM |
| CC(C)(C)C(=O)OCSP1(=O)CO[C@H]2[C@@H](F)[C@H](n3cnc4c(N)ncnc43)O[C@@H]2COP(=O)(SCOC(=O)C(C)(C)C)O[C@H]2[C@@H](F)[C@H](n3cnc4c(N)ncnc43)O[C@@H]2CO1 (single isomer, unassigned) [Compound 39c] |  |  |  |  | 30 nM |
| CC(C)OC(=O)OCSP1(=O)CO[C@H]2[C@@H](F)[C@H](n3cnc4c(N)ncnc43)O[C@@H]2COP(=O)(SCOC(=O)OC(C)C)O[C@H]2[C@@H](F)[C@H](n3cnc4c(N)ncnc43)O[C@@H]2CO1 (single isomer, unassigned) [Compound 40b] |  |  |  |  | 1200 nM |
| CC(C)OC(=O)OCSP1(=O)CO[C@H]2[C@@H](F)[C@H](n3cnc4c(N)ncnc43)O[C@@H]2COP(=O)(SCOC(=O)OC(C)C)O[C@H]2[C@@H](F)[C@H](n3cnc4c(N)ncnc43)O[C@@H]2CO1 (single isomer, unassigned) [Compound 40c] |  |  |  |  | 3900 nM |
| CC(C)(C)C(=O)OCOP1(=O)CO[C@H]2[C@@H](F)[C@H](n3cnc4c(N)ncnc43)O[C@@H]2COP(=O)(OCOC(=O)C(C)(C)C)O[C@H]2[C@@H](F)[C@H](n3cnc4c(N)ncnc43)O[C@@H]2CO1 (single isomer, unassigned) [Compound 41a] | 40 nM |  |  |  |  |
| CC(C)(C)C(=O)OCOP1(=O)CO[C@H]2[C@@H](F)[C@H](n3cnc4c(N)ncnc43)O[C@@H]2COP(=O)(OCOC(=O)C(C)(C)C)O[C@H]2[C@@H](F)[C@H](n3cnc4c(N)ncnc43)O[C@@H]2CO1 (single isomer, unassigned) [Compound 41c] | 11 nM | 70 nM | 60 nM | 60 nM |  |
| CC(C)OC(=O)OCOP1(=O)CO[C@H]2[C@@H](F)[C@H](n3cnc4c(N)ncnc43)O[C@@H]2COP(=O)(OCOC(=O)OC(C)C)O[C@H]2[C@@H](F)[C@H](n3cnc4c(N)ncnc43)O[C@@H]2CO1 (single isomer, unassigned) [Compound 42a] | 8100 nM |  |  |  |  |
| Nc1nc2c(ncn2[C@@H]2O[C@@H]3COP(=O)(O)O[C@H]4[C@@H](O)[C@H](n5cnc6c(N)ncnc65)O[C@@H]4COP(=O)(O)O[C@@H]2[C@@H]3O)c(=O)[nH]1 [2′3′-cGAMP, reference compound] |  | 300000 nM | 164000 nM | 210000 nM |  |
| CCCCCCCCCCCCOC(=O)OCSP1(=O)OC[C@H]2O[C@@H](n3cnc4c(N)ncnc43)[C@H](F)[C@@H]2OCP(=O)(O)OC[C@H]2O[C@@H](n3cnc4c(N)ncnc43)[C@H](F)[C@@H]2O1 (stereo partly drawn) [Compound 34b, (((2R,3R,3aR,7aR,9R,10R,10aR,15aR)-2,9-bis(6-amino-9H-purin-9-yl)-3,10-difluoro-13-hydroxy-5,13-dioxidodecahydro-2H-difuro[3,2-d:3′,2′-k][1,3,7,10]tetraoxa[2,8]diphosphacyclotridecin-5-yl)thio)methyl dodecyl carbonate] |  | 1300 nM | 500 nM | 700 nM |  |
